Results from US9572862B2, “Methods for promoting lipolysis and oxidation in liver and adipose tissue using catestatin” (The Regents of the University of California, priority 2012, dated 2017).
No end group written: not given here.

Tested on: adipose tissue explants from DIO mice
Assay: Lipolysis and fatty acid oxidation in adipose explants of DIO mice
Type: cell-based
Method: FIG. 8. Lipolysis and fatty acid oxidation in the adipose tissue explants of DIO and Ob/Ob mice after treatment with saline or CST for 16 days. Explants were incubated with saline or leptin (1 μM) for 3 hr and the concentrations of glycerol (A&C) and NEFA (B&D) released into the media from DIO (A&B) and Ob/Ob (C&D) explants were determined as a measure of lipolysis. Homogenates of the explants from DIO (E) and Ob/Ob […] were used to determine their capacity for oxidation of U-^14C-palmitate in response to the treatment with saline, CST, leptin and CST+leptin. The ^14CO2 released was captured and counted as the measure of fatty acid oxidation.
Adipose tissue explants were prepared as described (42). Epididymal fat pads from 12 hr fasted WT, Chga-KO, DIO and Ob/Ob mice with or without CST treatment were collected in Kreb-Ringer-phosphate (KRP) buffer containing 10 mM Hepes and 0.5% BSA. Tissues were minced to 1-2 mm size and treated with 100 nM CST, 1 μM leptin, or saline for 30 min (for signaling analysis) or 3 hr (for lipolysis and β-oxidation assays). Explants were also treated acutely with CST, leptin, a combination, or saline. At the end, incubation media were saved for analysis of glycerol and fatty acid release. Explants were washed prior to homogenization for immunoblotting and analysis of fatty acid oxidation.
Oxidation of radiolabeled palmitate in the homogenates of adipose tissue explants as described previously (45). For oxidation studies of cultured cells, HepG2 (hepatocytes) and 3T3-L1 preadipocytes were obtained from ATCC and cultured following supplier's protocol. Confluent 3T3-L1 cultures were differentiated into adipocytes by treating with a cocktail of dexamethasone (100 nM), IBMX ([…]) and insulin (100 nM) for 10 days. Media were then switched to serum-free DMEM with 1% BSA. Hepatocytes were assayed for lipogenesis and fat oxidation in response to CST treatment. Serum-free cultures were treated with CST (100 nM) for 24 hr followed by a 2 hr incubation with U^14C-palmitate (0.5 μCi/ml). Fatty acid oxidation in cells was determined by modifying a published method (46). Specifically, the culture media in 24-well plates were acidified with 10% HClO4 after incubation with the labeled fatty acid and immediately covered with a thick filter paper sheet (cut to size) soaked in 2 N NaOH and placed underneath the plastic lid. The whole plate was sealed with parafilm. After further incubation for 2 hr, the filter paper sheet was marked as circles around the rim of the wells and then the circles were excised. The filter discs were counted to determine the amount of ^14CO2 absorbed in the papers. Cells in the culture wells were lysed in 1 N NaOH and protein content was assayed using Folin's reagent (BioRad, Hercules, Calif.).

[1] = CST in vivo 16 days, leptin 1 μM ex vivo 3 hr

SSMKLSFRARAYGFRGPGPQL [CST]
palmitate oxidation: neither CST nor leptin alone stimulated oxidation | NEFA release in the media [1]: not significant | glycerol release in the media [1]: can release some glycerol in the media
